Consider 22 compounds from BindingDB's records for patent US11440923 (2022).

Molecules are shown by their SMILES.

This assay has as its target T1, Induced myeloid leukemia cell differentiation protein Mcl-1 [K194A,K197A,R201A] (Homo sapiens, UniProt Q07820, K194A/K197A/R201A).
T1 construct: gene MCL1
Nature of the assay: Protein-Protein Interaction Assay: MCL-1/Noxa BH3 Peptide (MCL-1 Assay).

T1 sequence (Q07820 whole entry K194A/K197A/R201A, looked up): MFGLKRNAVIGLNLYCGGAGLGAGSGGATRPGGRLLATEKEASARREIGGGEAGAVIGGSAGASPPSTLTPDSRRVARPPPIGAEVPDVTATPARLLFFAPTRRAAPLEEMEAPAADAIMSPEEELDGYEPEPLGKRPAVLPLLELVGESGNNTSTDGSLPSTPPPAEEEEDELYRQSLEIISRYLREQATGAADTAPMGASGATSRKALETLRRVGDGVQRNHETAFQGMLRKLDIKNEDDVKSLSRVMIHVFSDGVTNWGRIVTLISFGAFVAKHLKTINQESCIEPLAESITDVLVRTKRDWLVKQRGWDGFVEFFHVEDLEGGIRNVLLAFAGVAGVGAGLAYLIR
Protocol: The dose-dependent inhibition by the compounds described in this invention of the interaction between MCL-1 and the BH3 domain of Noxa (both human) was determined using a steady state binding competition assay with time-resolved fluorescence energy transfer (TR-FRET) readout. […] The MBP-MCL-1 was purchased from Beryllium (Bedford, Mass., USA). […] The Noxa BH3-derived peptide can be obtained from e.g. Biosyntan (Berlin, Germany).

By IC50 is commonly meant the concentration at which inhibition is half-maximal. A higher IC50 goes with weaker potency. On to `CCc1c2c(nn1C)C(CCC1CCOCC1)OCCCCn1c(C(=O)O)c(CCCOc3cccc4cc(F)ccc34)c3ccc(Cl)c-2c31` (racemic) [US11440923, Example 60], for which the IC50 stood at 690 pM.

As to `CCc1c2c(nn1C)C1CCCCN1CCCCn1c(C(=O)O)c(CCCOc3cccc4ccccc34)c3ccc(Cl)c-2c31` (racemic) [US11440923, Example 102], the midpoint of inhibition, the IC50, lay at 940 pM.

Turning to `CCc1c2c(nn1C)C(CCN1CCOCC1)OCCCCn1c(C(=O)O)c(CCCOc3cccc4cc(F)ccc34)c3ccc(Cl)c-2c31` (single isomer, unassigned) [US11440923, Example 23], the IC50 came out at 630 pM.

`CCc1c2c(nn1C)C(CCC1CCOCC1)OCCCCn1c(C(=O)O)c(CCCOc3cccc4cc(F)ccc34)c3ccc(Cl)c-2c31` (single isomer, unassigned) [US11440923, Example 63] returned an IC50 of 880 pM.

For the compound `CCc1c2c(nn1C)C(CCN1CC(F)(F)C1)OCCCCn1c(C(=O)O)c(CCCOc3cccc4cc(F)ccc34)c3ccc(Cl)c-2c31` (single isomer, unassigned) [US11440923, Example 78], the IC50 turned out to be 420 pM.

`CCC1OCCCCn2c(C(=O)O)c(CCCOc3cccc4ccccc34)c3ccc(Cl)c(c32)-c2c1nn(C)c2C` (single isomer, unassigned; form 1) [US11440923, Example 29] yielded an IC50 of 1000 pM.

As to `CCc1c2c(nn1C)C(C(F)(F)F)OCCCCn1c(C(=O)O)c(CCCOc3cccc4ccccc34)c3ccc(Cl)c-2c31` (single isomer, unassigned; form 1) [US11440923, Example 33], the IC50 was 2100 pM.

Compound `Cc1c2c(nn1C)C(C1CC1)OCCCCn1c(C(=O)O)c(CCCOc3cccc4ccccc34)c3ccc(Cl)c-2c31` (single isomer, unassigned; form 1) [US11440923, Example 35] came in with a concentration for half-maximal inhibition (IC50) of 730 pM.

The compound `CCc1c2c(nn1C)C(C1CC1)OCCCCn1c(C(=O)O)c(CCCOc3cccc4cc(F)ccc34)c3ccc(Cl)c-2c31` (single isomer, unassigned; form 1) [US11440923, Example 39] registered a half-inhibitory concentration (IC50) of 720 pM.

In turn, `CCc1c2c(nn1C)C(CCOC)OCCCCn1c(C(=O)O)c(CCCOc3cccc4cc(F)ccc34)c3ccc(Cl)c-2c31` (single isomer, unassigned; form 1) [US11440923, Example 42] came in with a half-maximal inhibitory concentration (IC50) of 330 pM.

Consider `CCc1c2c(nn1C)C(CC(C)(C)O)OCCCCn1c(C(=O)O)c(CCCOc3cccc4cc(F)ccc34)c3ccc(Cl)c-2c31` (single isomer, unassigned; form 1) [US11440923, Example 53], for which the IC50 is 410 pM.

`CCc1c2c(nn1C)C(CCC(C)(C)O)OCCCCn1c(C(=O)O)c(CCCOc3cccc4cc(F)ccc34)c3ccc(Cl)c-2c31` (single isomer, unassigned; form 1) [US11440923, Example 75] had an IC50 of 370 pM.

Turning to `CCC1OCCCCn2c(C(=O)O)c(CCCOc3cccc4ccccc34)c3ccc(Cl)c(c32)-c2c1nn(C)c2C` (single isomer, unassigned; form 2) [US11440923, Example 30], the IC50 is 200000 pM.

For the compound `CCc1c2c(nn1C)C(C(F)(F)F)OCCCCn1c(C(=O)O)c(CCCOc3cccc4ccccc34)c3ccc(Cl)c-2c31` (single isomer, unassigned; form 2) [US11440923, Example 34], the IC50 is 370000 pM.

Compound `Cc1c2c(nn1C)C(C1CC1)OCCCCn1c(C(=O)O)c(CCCOc3cccc4ccccc34)c3ccc(Cl)c-2c31` (single isomer, unassigned; form 2) [US11440923, Example 36] gave an IC50 of 280000 pM.

As for `CCc1c2c(nn1C)C(C1CC1)OCCCCn1c(C(=O)O)c(CCCOc3cccc4cc(F)ccc34)c3ccc(Cl)c-2c31` (single isomer, unassigned; form 2) [US11440923, Example 40], half-maximal inhibition (IC50) required 48000 pM.

Consider `CCc1c2c(nn1C)C(CCOC)OCCCCn1c(C(=O)O)c(CCCOc3cccc4cc(F)ccc34)c3ccc(Cl)c-2c31` (single isomer, unassigned; form 2) [US11440923, Example 43], for which the IC50 came to 88000 pM.

Compound `CCc1c2c(nn1C)C(CC(C)(C)O)OCCCCn1c(C(=O)O)c(CCCOc3cccc4cc(F)ccc34)c3ccc(Cl)c-2c31` (single isomer, unassigned; form 2) [US11440923, Example 54] gave an IC50 of 47000 pM.

As for `CCc1c2c(nn1C)C(CCC(C)(C)O)OCCCCn1c(C(=O)O)c(CCCOc3cccc4cc(F)ccc34)c3ccc(Cl)c-2c31` (single isomer, unassigned; form 2) [US11440923, Example 76], half-maximal inhibition (IC50) required 90000 pM.

Regarding `Cc1c2c(nn1C)C(CCN1CCOCC1)OCCCCn1c(C(=O)O)c(CCCOc3cccc4cc(F)ccc34)c3ccc(Cl)c-2c31` (configuration not stated) [US11440923, Example 16], inhibition was half-maximal at 1200 pM (IC50).

On to `Cc1c2c(nn1C)C(CCN1CCOCC1)OCCCCn1c(C(=O)O)c(CCCOc3cccc4cc(F)ccc34)c3ccc(F)c-2c31` (configuration not stated) [US11440923, Example 19], for which it took 790 pM to reach half-maximal inhibition (IC50).

Compound `CCc1c2c(nn1C)[C@@H](CCN1CCOCC1)OCCCCn1c(C(=O)O)c(CCCOc3cccc4cc(F)ccc34)c3ccc(Cl)c-2c31` [US11440923, Example 48] yielded an IC50 of 3600 pM.
